# Data: US6902881B2, “Compounds and methods for regulating cell differentiation” (priority 2000, dated 2005)
# Tests used:
# [1] = tested on: Normal Fibroblast (3T3-L1 fibroblasts); experiment: Cellular triacyl glycerol (TAG) content, normal fibroblast; assay type: cell-based
# Procedure: Expression of differentiation markers. Carcinoembryogenic antigen in cell supernatants collected each three days was assayed by standard ELISA determinations using an IMX assay for quantitative measurement of the antigen. Cellular triacyl glycerol content was measured spectrophotometrically by enzymatic hydrolysis and analysis of the amount of glycerol released using a standard assay, Triglyceride (INT) 10 (Sigma Diagnostics). […] The fluorescence is detected at 450 nm with an excitation of 365 nm, using a Jobin Ivon-Spex Fluoro Max-2 fluorimeter. The alkaline phosphatase activity detected was expressed in units of μmol/mg protein/min. These compounds also affect the timing for the fat accumulation. After 9 days of incubation with insulin and bovine pituitary extract, but without biliverdin, the fat droplets in the cells are small and scattered diffusely throughout the cell. These globules continue to enlarge to fill most of the cytoplasmic space by day 14. In contrast, by day 7 the cells incubated in the presence of biliverdin already contain large, grouped and prominent droplets. While the triacyl glycerol content increases in both HT 29 and liposarcoma cells, the fat droplets in HT 29 cells are smaller than those that fill the cytoplasm of the liposarcoma cells. 3T3-L1 fibroblasts differentiate into adipocytes in the presence of insulin (Table VII). In the absence of biliverdin, this hormone increases the triacylglycerol content of 3T3-L1 fibroblasts by 3-fold relative to control. When biliverdin is added, a progressively greater content of triacyl glycerol is achieved at day 9. The increase is dependent on the biliverdin concentration. At the highest concentration used, 4×10^−7 M, there is a 5.8-fold increase of triacyl glycerol content over that of the undifferentiated fibroblasts (Table VII). This almost doubles the amount in the cells incubated with differentiation medium alone and is nearly as high as observed with troglitazone. At a lower biliverdin concentration, 10^−8 M, there is a 3.5-fold increase compared to control values. Remarkably, the amounts of biliverdin required to achieve the effects on proliferation, cell cycle and differentiation marker up-regulation, i.e. 10^−7-10^−06 M, are the same as those needed to re-establish the capacity of embryos depleted of the tetrapyrrole by treatment with UV-light to form a dorsal axis.
# Liposarcoma cells = experiment: Cellular triacyl glycerol (TAG) content, liposarcoma; assay type: cell-based, human; conditions: insulin 5 μg/ml, pituitary extract 20 μg/ml, biliverdin 4 × 10^−7 M where present
# Procedure: Expression of differentiation markers. Carcinoembryogenic antigen in cell supernatants collected each three days was assayed by standard ELISA determinations using an IMX assay for quantitative measurement of the antigen. Cellular triacyl glycerol content was measured spectrophotometrically by enzymatic hydrolysis and analysis of the amount of glycerol released using a standard assay, Triglyceride (INT) 10 (Sigma Diagnostics). Cellular alkaline phosphatase activity was determined by measuring the fluorescence change induced by the hydrolysis of 4-methylumbelliferylphosphate. The fluorescence is detected at 450 nm with an excitation of 365 nm, using a Jobin Ivon-Spex Fluoro Max-2 fluorimeter. The alkaline phosphatase activity detected was expressed in units of μmol/mg protein/min.
# Liposarcoma cells also accumulate triacyl glycerol in response to biliverdin. The extent of the accumulation is determined by the composition of the incubation media. Triacyl glycerol is induced in liposarcoma cells by insulin alone. The amount increases when bovine pituitary extract is added with the insulin. The highest production is achieved, however, when biliverdin is combined with insulin plus bovine pituitary extract.
# [2] = tested on: p 21 content in HT 29 Colon Cancer Cells; experiment: p21 content in HT 29 colon cancer cells; assay type: cell-based, human; conditions: HT 29 low-density culture
# Procedure: Biliverdin IXα exerts powerful effects on human colon cancer HT 29 cells. Normally, the contents of p21 and p27, known inhibitors of the CDK system, increase as control HT 29 cells become confluent and reach stationary phase. […] In contrast, addition of 4×10^−7 M biliverdin to the incubation medium of the low-density cultures, results in persistence and/or progressive increase in p21 and p27 content starting as early as 16 hs. This effect on p21 induction is dependent on one or both of the propionic acid side chains of biliverdin.
# [3] = tested on: control fertilized oocytes unexposed to UV light; experiment: Development of control embryos unexposed to UV light incubated with the compounds (dysmorphogen test); conditions: control fertilized oocytes unexposed to UV light incubated with the compound
# Procedure: (§1) Several hundred spawned eggs were fertilized in vitro and incubated at 16 to 18° C. […] The vegetal surfaces of some of these embryos were irradiated with one or the other sources of UV light within 10 min of fertilization for 20-30 min. […] The embryos were not disturbed, touched or tipped from the moment of fertilization, during UV irradiation or for the duration of development. […] A score of 5 defines a normal dorsal axis, 4 a microcephalic, 3 a cyclopic, 2 an anoptic, 1 an acephalic and 0 an adorsal embryo.
# The biological activities of biliverdin and its derivatives were tested by adding each of them to the incubation solution of embryos after the termination of the UV light exposure to either 254 or 366 nm UV light and at selected time periods between T ƒfm=0.4-2.5. Final concentrations of biliverdin ranged from 0.05 to 5 μM in less than 1% ethanol. […] The extent of dorsal axis formation was analyzed by the morphological criteria described above.
# Stage 1 embryos were exposed to UV-light source emitting at 366 nm (Mineralight UVSL-58, Ultraviolet Products, Inc., San Gabriel, Calif.) as described and then incubated in the presence of pure candidate DCD or commercially available biliverdin (Sigma-Aldrich, St. Louis, Mo.) at final concentrations from 0.05 to 1.2 μM in less than 1% ethanol. The concentrations were calculated using a molar extinction coefficient of 51,000. […]
# HT29 colon cancer cells = experiment: Cellular proliferation and viability of HT29 colon cancer cells; assay type: cell-based, human
# Procedure: Cell Culture Conditions. Human HT 29 colon cancer cells were purchased from the American Type Culture Collection. Cells were maintained in Dulbecco's Modified Eagle's Medium (DME) supplemented with 5% heat-inactivated fetal bovine serum, 2 mM glutamine, and antibiotics (DME/5%). All cell lines were incubated in a humidified 5% CO2/air environment. They were maintained at 37° C. in 5% CO2 covered in aluminum foil to prevent exposure to the light. A total of 1×10^6 cells were incubated per flask and allowed to attach overnight. Media was changed every third day. Cell counts were performed on a Coulter Counter following detachment of cells by standard trypsinization procedures. […] The period of exposure was followed by incubation in the absence of biliverdine. Cell numbers were monitored until proliferation resumed. The production of CEA and alkaline phosphatase was measured as described below.
# The HT29 colon cancer cells were incubated with different concentrations of biliverdine and their response studied to identify the concentration ranges required to elicit a biological and/or a toxicological response (Table III).
# [4] = tested on: UV-irradiated Xenopus laevis stage 1 embryos; experiment: Rescue of dorsal axis formation in UV-irradiated embryos, scored by dorsal anterior index (DAI); assay type: in vivo
# Procedure: as §1
# The biological activities of biliverdin and its derivatives were tested by adding each of them to the incubation solution of embryos after the termination of the UV light exposure to either 254 or 366 nm UV light and at selected time periods between T ƒfm=0.4-2.5. Final concentrations of biliverdin ranged from 0.05 to 5 μM in less than 1% ethanol. […] An extinction coefficient of 51,000 was utilized to calculate their concentrations. All petri dishes were covered with aluminum foil to avoid light exposure. The extent of dorsal axis formation was analyzed by the morphological criteria described above.
# Stage 1 embryos were exposed to UV-light source emitting at 366 nm (Mineralight UVSL-58, Ultraviolet Products, Inc., San Gabriel, Calif.) as described and then incubated in the presence of pure candidate DCD or commercially available biliverdin (Sigma-Aldrich, St. Louis, Mo.) at final concentrations from 0.05 to 1.2 μM in less than 1% ethanol. The concentrations were calculated using a molar extinction coefficient of 51,000. One group of embryos was not exposed to UV light but was incubated in the presence of 0.5 μM of candidate DCD.
Molecule,"increase of triacylglycerol content relative to control ([1]; 3T3-L1 fibroblasts, insulin in the absence of biliverdin) [fold]","% Change of TAG ([1]; Normal Fibroblast, insulin 5 μg/ml, biliverdin 4 × 10^−7 M where present) [%]","TAG ([1]; Normal Fibroblast, insulin 5 μg/ml, biliverdin 4 × 10^−7 M where present, control 9.3) [mg/10^6 cells]",% Change of TAG (Liposarcoma cells) [%],TAG (Liposarcoma cells; control 12.3) [mg/10^6 cells],p21 content in words [2],average DAI of control embryos [3],"activity on human colon adenocarcinoma cells (p21/p27, G1, proliferation arrest, differentiation markers) (HT29 colon cancer cells)","recovery of dorsal axial structures ([4]; 254 or 366 nm UV-irradiated embryos, μM amounts)","recovery of dorsal axis formation ([4]; UV-irradiated embryos, 3.7 μM)"
Insulin: hormone; differentiates 3T3-L1 fibroblasts into adipocytes,3,304,28.3,139,17.1,–,–,–,–,–
"C=CC1=C(C)/C(=C/C2=NC(=C\c3[nH]c(/C=C4\NC(=O)C(C)=C4C=C)c(C)c3CCC(=O)OC)/C(CCC(=O)OC)=C2C)NC1=O.Cl [biliverdin dimethyl ester hydrochloride, reference compound]",–,–,–,–,–,nearly undetectable,5,inactive,does not induce recovery,no recovery
